{"source": "patent US20100173935A1", "about": "“Muscarinic Receptor Agonists that are Effective in the Treatment of Pain, Alzheimer's Disease and Schizophrenia” (AstraZeneca AB, priority 2006, published 2010)", "key": {"[1]": {"target": "T1, hM3 (human Muscarinic receptor subtype 3) (Homo sapiens, UniProt P20309)", "T1 construct": "expressed in transfected cells; host or cells: CHO cells (ATCC)", "T1 sequence (P20309 whole entry)": "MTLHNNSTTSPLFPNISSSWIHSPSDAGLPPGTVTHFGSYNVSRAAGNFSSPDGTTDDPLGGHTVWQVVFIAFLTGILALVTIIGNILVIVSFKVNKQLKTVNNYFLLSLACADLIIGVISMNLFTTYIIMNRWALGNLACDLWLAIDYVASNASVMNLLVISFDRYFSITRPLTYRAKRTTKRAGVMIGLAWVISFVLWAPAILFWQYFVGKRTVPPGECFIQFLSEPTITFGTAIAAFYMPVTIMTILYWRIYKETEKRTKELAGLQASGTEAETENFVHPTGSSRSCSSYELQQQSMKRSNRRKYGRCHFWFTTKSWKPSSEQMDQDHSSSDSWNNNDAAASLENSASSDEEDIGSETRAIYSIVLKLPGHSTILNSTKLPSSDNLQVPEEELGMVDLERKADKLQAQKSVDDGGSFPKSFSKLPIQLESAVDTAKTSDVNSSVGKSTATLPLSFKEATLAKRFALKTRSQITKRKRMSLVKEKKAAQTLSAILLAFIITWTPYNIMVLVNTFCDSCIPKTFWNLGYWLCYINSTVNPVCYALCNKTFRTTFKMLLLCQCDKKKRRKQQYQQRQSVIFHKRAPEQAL", "test": "Human M3 calcium mobilization FLIPR assay", "format": "cell-based", "settings": "CHO cells expressing hM3, Ca2+ release", "protocol": "(§1) The compound activity in the present invention (EC50 or IC50) was measured using a 384 plate-based imaging assay that monitors drug induced intracellular Ca^2+ release in whole cells. Activation of hM1 (human Muscarinic receptor subtype 1, gene bank access NM_000738), rM1 (rat Muscarinic receptor subtype 1, gene bank access NM_080773), hM3 (human Muscarinic receptor subtype 3, gene bank access NM_000740NM_000740) and hM5 (human Muscarinic receptor subtype 5, gene bank access NM_0121258), receptors expressed in CHO cells (chinese hamster ovary cells, ATCC) was quantified in a Molecular Devices FLIPR II™ instrument as an increase in fluorescent signal. Inhibition of hM3 and hM5 by compounds was determined by the decrease in fluorescent signal in response to 20 nM carbachol activation.\n(§2) CHO cells were plated in 384-black polylysine coated plate (Costar) at 8000 cells/well/50 μl for 24 hours or 4000 cells/well for 48 hours in a humidified incubator (5% CO2 and 37° C.) in DMEM/F12 medium without selection agent. Prior to the experiment the cell culture medium was removed from the plates by inversion. A loading solution of 30 μl of Hank's balanced salt solution, 10 mM Hepes and 2.5 mM Probenicid at Ph 7.4 (Cat no. 311-520-VL, Wisent) with 2 μM calcium indicator dye (FLUO-3AM, Molecular Probes F14202) was added to each well. Plates were incubated at 37° C. for 60 minutes prior to start the experiment. The incubation was terminated by washing the cells four times in assay buffer, leaving a residual 25 μl buffer per well. Cell plates were then transferred to the FLIPR, ready for compound additions.\n(§3) The day of experiment, carbachol and compounds were diluted in three-fold concentration range (10 points serial dilution) for addition by FLIPR instrument. For all calcium assays, a baseline reading was taken for 30 seconds followed by the addition of 12.5 μl (25 μl for hM1 and rM1) of compounds, resulting in a total well volume of 37.5 μl (50 μl for hM1 and rM1). Data were collected every 1.6 seconds for 300 seconds. For hM3 and hM5 an additional 12.5 μl of carbachol (20 nM final) was added at 300 seconds. After this addition of carbachol (producing a final volume of 50 μl), the FLIPR continued to collect data every 2 seconds for 240 seconds. The fluorescence emission was read using filter 1 (emission 520-545 nm) by the FLIPR on board CCD camera.\n(§4) Calcium mobilization output data were calculated as the maximal relative fluorescence unit (RFU) minus the minal value for both compound and agonist reading frame (except for hM1 and rM1 using only the maximal RFU). Data were analyzed using sigmoidal fits of a non-linear curve-fitting program (XLfit version 5.0.6 from ID Business Solutions Limited, Guildford, UK). All EC50 and IC50 values are reported as arithmetic means±standard error of mean of ‘n’ independent experiments."}, "[2]": {"target": "T2, hM1 (human Muscarinic receptor subtype 1) (Homo sapiens, UniProt P11229)", "T2 construct": "expressed in transfected cells; host or cells: CHO cells (ATCC)", "T2 sequence (P11229 1-460)": "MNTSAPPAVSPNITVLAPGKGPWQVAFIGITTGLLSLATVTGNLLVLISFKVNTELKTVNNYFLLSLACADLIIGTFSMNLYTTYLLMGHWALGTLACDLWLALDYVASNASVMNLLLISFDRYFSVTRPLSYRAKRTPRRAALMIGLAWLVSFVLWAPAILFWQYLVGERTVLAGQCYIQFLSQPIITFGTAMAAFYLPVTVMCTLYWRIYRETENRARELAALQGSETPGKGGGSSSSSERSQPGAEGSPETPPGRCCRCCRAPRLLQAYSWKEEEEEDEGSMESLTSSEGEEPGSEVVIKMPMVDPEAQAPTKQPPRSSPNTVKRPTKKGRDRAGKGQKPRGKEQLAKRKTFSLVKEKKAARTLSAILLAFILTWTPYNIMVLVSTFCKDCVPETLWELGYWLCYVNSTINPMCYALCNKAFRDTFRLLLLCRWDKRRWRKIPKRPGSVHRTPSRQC", "test": "Human M1 calcium mobilization FLIPR assay", "format": "cell-based", "settings": "CHO cells expressing hM1, Ca2+ release", "protocol": "as §1, §2, §3, §4"}}, "note": "pEC50: −log10 of the molar value."}
{"smiles": "CCOC(=O)N1CC[C@@H](N2CCC(n3c(=O)[nH]c4ccc(F)cc43)CC2)C1", "note": "(single isomer, unassigned) [Example 36]", "values": [{"measurement": "pEC50", "setting": "[1]", "result": "< 4.40"}, {"measurement": "pEC50", "setting": "[2]", "result": 7.39}]}
{"smiles": "Cn1c(=O)n(C2CCN([C@H]3CCN(C(=O)CCN4CCCC4=O)C3)CC2)c2ccccc21", "note": "[Example 24, 1-methyl-3-(1-{(3S)-1-[3-(2-oxopyrrolidin-1-yl)propanoyl]pyrrolidin-3-yl}piperidin-4-yl)-1,3-dihydro-2H-benzimidazol-2-one]", "values": [{"measurement": "pEC50", "setting": "[1]", "result": "< 4.40"}, {"measurement": "pEC50", "setting": "[2]", "result": 6.69}]}
{"smiles": "CCOC(=O)N1CCC(N2CCC(C3C(=O)Nc4ccccc43)CC2)C1", "note": "(centres unmarked) [Example 13, Ethyl 3-[4-(2-oxo-2,3-dihydro-1H-indol-3-yl)piperidin-1-yl]pyrrolidine-1-carboxylate]", "values": [{"measurement": "pEC50", "setting": "[1]", "result": "< 4.40"}, {"measurement": "pEC50", "setting": "[2]", "result": 6.95}]}
{"smiles": "CCOC(=O)N1CC[C@H](N2CCC(n3c(=O)[nH]c4ccc(F)cc43)CC2)C1", "note": "(single isomer, unassigned) [Example 35]", "values": [{"measurement": "pEC50", "setting": "[1]", "result": 5.22}, {"measurement": "pEC50", "setting": "[2]", "result": 8.35}]}
{"smiles": "CCOC(=O)N1CC[C@H](N2CCC(N3C(=O)Cc4ccccc43)CC2)C1", "note": "[Example 26, Ethyl (3S)-3-[4-(2-oxo-2,3-dihydro-1H-indol-1-yl)piperidin-1-yl]pyrrolidine-1-carboxylate]", "values": [{"measurement": "pEC50", "setting": "[1]", "result": "< 4.40"}, {"measurement": "pEC50", "setting": "[2]", "result": 7.51}]}
{"smiles": "O=C1CCCN1CCC(=O)N1CC[C@H](N2CCC(N3C(=O)Cc4ccccc43)CC2)C1", "note": "[Example 29, 1-(1-{(3S)-1-[3-(2-oxopyrrolidin-1-yl)propanoyl]pyrrolidin-3-yl}piperidin-4-yl)-1,3-dihydro-2H-indol-2-one]", "values": [{"measurement": "pEC50", "setting": "[1]", "result": 5.60}, {"measurement": "pEC50", "setting": "[2]", "result": 8.46}]}
{"smiles": "O=C1CCCN1CCCC(=O)N1CC[C@H](N2CCC(n3c(=O)[nH]c4ccccc43)CC2)C1", "note": "[Example 22, 1-(1-{(3S)-1-[4-(2-oxopyrrolidin-1-yl)butanoyl]pyrrolidin-3-yl}piperidin-4-yl)-1,3-dihydro-2H-benzimidazol-2-one]", "values": [{"measurement": "pEC50", "setting": "[2]", "result": 7.42}]}
{"smiles": "CCOC(=O)N1CC[C@@H](N2CCC(n3c(=O)[nH]c4ccccc43)CC2)C1", "note": "[Example 16, Ethyl (3R)-3-[4-(2-oxo-2,3-dihydro-1H-benzimidazol-1-yl)piperidin-1-yl]pyrrolidine-1-carboxylate]", "values": [{"measurement": "pEC50", "setting": "[1]", "result": "< 4.40"}, {"measurement": "pEC50", "setting": "[2]", "result": 6.89}]}
{"smiles": "CCOC(=O)N1CC[C@H](N2CCC(n3c(=O)[nH]c4ccc(C#N)cc43)CC2)C1", "note": "[Example 41, Ethyl (3S)-3-[4-(6-cyano-2-oxo-2,3-dihydro-1H-benzimidazol-1-yl)piperidin-1-yl]pyrrolidine-1-carboxylate]", "values": [{"measurement": "pEC50", "setting": "[1]", "result": 5.57}, {"measurement": "pEC50", "setting": "[2]", "result": 8.47}]}
{"smiles": "CCOC(=O)N1CC[C@H](N2CCC(n3c(=O)[nH]c4ccc(Cl)cc43)CC2)C1", "note": "[Example 42, Ethyl (3S)-3-[4-(6-chloro-2-oxo-2,3-dihydro-1H-benzimidazol-1-yl)piperidin-1-yl]pyrrolidine-1-carboxylate]", "values": [{"measurement": "pEC50", "setting": "[2]", "result": 8.52}]}
{"smiles": "O=C(C1CCCC1)N1CC[C@H](N2CCC(n3c(=O)[nH]c4ccccc43)CC2)C1", "note": "[Example 19, 1-{1-[(3S)-1-(cyclopentylcarbonyl)pyrrolidin-3-yl]piperidin-4-yl}-1,3-dihydro-2H-benzimidazol-2-one]", "values": [{"measurement": "pEC50", "setting": "[1]", "result": 5.68}, {"measurement": "pEC50", "setting": "[2]", "result": 8.02}]}
